Experimental data as given in US6420571B2, “Methods for preparing antiviral calanolide compounds” (Sarawak MediChem Pharmaceuticals, Inc., priority 1999, dated 2002).
pEC50: −log10 of the molar value.

How the values were obtained:
[1] = tested on: pyridinone-resistant A17 virus; settings: cited from earlier work
[2] = tested on: HIV-1; settings: CEM-SS cells; read-out: EC50, HIV-1 replication; cited from earlier work
[3] = tested on: AZT-resistant G-9106 strain of HIV; settings: cited from earlier work
[4] = tested on: HIV-1; settings: down to a concentration of 0.1 μM; cited from earlier work

melting point [°C]	Structure (SMILES)	activity against pyridinone-resistant A17 virus [1]	pEC50 [2]	activity against AZT-resistant G-9106 strain of HIV [3]	protection against the cytopathic effects of HIV-1 [4] [%]
158 to 160	CCCc1cc(=O)oc2cc(OC(=O)C(C)(C)C)cc(O)c12				
	CCCc1cc(=O)oc2c3c(c4c(c12)OC(C)(C)C=C4)O[C@H](C)[C@@H](C)[C@@H]3O [(+)-calanolide A]	active	7.00	active	100
